Measured values as given in patent publication US11091494B2, “Crystal form of acalabrutinib and preparation method and use thereof” (Crystal Pharmaceutical (Suzhou) Co., Ltd., priority 2018, dated 2021).

Assays:
Format in all cases: physicochemical
[1] = Adhesiveness (amount of material sticking to the punch); conditions: about 30 mg, φ8 mm round tooling, 10 kN, compression repeated twice
Experimental: (§1) Approximately 30 mg of Form A and Form I in WO2017002095A1 were weighed, added into the dies of a φ8 mm round tooling, compressed at 10 kN and held for about 30 s. The amount of material sticking to the punch was weighed. The compression was repeated twice and the cumulative amount and average amount of material sticking to the punch during the compression were recorded.
as §1, with “Form F” for “Form A”
as §1, with “Form G” for “Form A”

[2] = Intrinsic dissolution rate in pH 2.5 HCl/NaCl aqueous solution; conditions: for Cumulative dissolution / IDR (intrinsic dissolution rate): pH 2.5 HCl/NaCl, 37° C.; for Cumulative dissolution: 0.5 cm^2 pellet; for IDR relative to that of Form I in WO2017002095A1: pH 2.5 HCl/NaCl solution; for IDR (intrinsic dissolution rate): slope over 0-45 minutes
Experimental: (§2) Approximately 200 mg of Form A and Form I in WO2017002095A1 were added into the die, compressed at 10 kN and held for 1 minute to obtain a pellet having a surface area of 0.5 cm^2. The whole tool with the pellet was transferred to a dissolution apparatus to test the intrinsic dissolution rate. The slope (mg/min) was calculated according to the data within 0-45 minutes. Intrinsic dissolution rate (IDR, mg/min/cm^2) was further calculated according to the slope.
as §2, with “Form D” for “Form A”
as §2, with “Form F” for “Form A”, “intrinsic dissolution.” for “intrinsic dissolution rate.”
as §2, with “Form G” for “Form A”, “intrinsic dissolution.” for “intrinsic dissolution rate.”
as §2, with “Form CS15” for “Form A”, “intrinsic dissolution.” for “intrinsic dissolution rate.”

[3] = Stability of crystalline form on storage, checked by XRPD; conditions: for Solid form: XRPD; for Chemical purity on storage: at least 2 months
Experimental: Approximately 10 mg of Form A of the present disclosure was weighed and stored at different conditions of 25° C./60% RH in open dish, 25° C./60% RH in closed dish, 40° C./75% RH in open dish, and 40° C./75% RH in closed dish. Crystalline forms were checked by XRPD.
Approximately 10 mg of Form D of the present disclosure was weighed and stored at different conditions of 25° C./60% RH in closed dish, 25° C./60% RH in open dish, 40° C./75% RH in closed dish. Crystalline form was checked by XRPD.
Approximately 10 mg of Form F of the present disclosure was weighed and stored at different conditions of 25° C./60% RH in closed dish, 25° C./60% RH in open dish, and 40° C./75% RH in closed dish, 40° C./75% RH in open dish. Crystalline forms were checked by XRPD.
Approximately 10 mg of Form G of the present disclosure was weighed and stored at 25° C./60% RH in closed dish. Crystalline forms were checked by XRPD.
Approximately 10 mg of Form CS15 of the present disclosure was weighed and stored at different conditions of 25° C./60% RH in open dish, 25° C./60% RH in closed dish. Crystalline forms were checked by XRPD.

[4] = Flowability (compressibility index / Carr index); conditions: for Flowability: by compressibility index; for Compressibility index: c=(ρf−ρ0)/ρf
Experimental: (§3) Compressibility index or Carr index is usually utilized to evaluate the flowability of powder and granules during the drug product process. Compressibility index test method is as follows: a certain amount of powder was added into a measuring cylinder and bulk volume was recorded. Then the powder was tapped to make it in the tightest state and the tapped volume was recorded. The bulk density (ρ0) and tapped density (ρf) were calculated. Compressibility index was calculated according to c=(ρf−ρ0)/ρf.
as §3, with “(ρ0),” for “(ρ0) and”, “calculated and compressibility” for “calculated. Compressibility”, “c=(pf-po)/pf.” for “c=(ρf−ρ0)/ρf.”
as §3, with “(ρ0),” for “(ρ0) and”, “calculated and compressibility” for “calculated. Compressibility”

[5] = 25° C./60% RH in closed dish, 2 months
[6] = 25° C./60% RH in open and closed dishes
[7] = 25° C./60% RH in open dish, 2 months
[8] = 40° C./75% RH in closed dish, 2 months
[9] = 40° C./75% RH in open dish, 2 months

Average amount (material sticking to the punch) [1] [µg] | Cumulative amount (material sticking to the punch) [1] [µg] | Cumulative dissolution ([2]; 0 min) [mg] | Cumulative dissolution ([2]; 5 min) [mg] | Cumulative dissolution ([2]; 10 min) [mg] | Cumulative dissolution ([2]; 15 min) [mg] | Cumulative dissolution ([2]; 20 min) [mg] | Cumulative dissolution ([2]; 25 min) [mg] | Cumulative dissolution ([2]; 30 min) [mg] | Cumulative dissolution ([2]; 35 min) [mg] | Cumulative dissolution ([2]; 45 min) [mg] | IDR relative to that of Form I in WO2017002095A1 [2] [times] | IDR (intrinsic dissolution rate) [2] [mg/min/cm^2] | Time kept stable (crystalline state doesn't change) ([3]; 25° C./60% RH in closed dish) | Solid form [3, 5] | Chemical purity on storage [3, 6] | Time kept stable (crystalline state doesn't change) ([3]; 25° C./60% RH in open dish) | Solid form [3, 7] | Solid form ([3]; Initial) | Bulk density (ρ0) [4] [g/mL] | SMILES | also measured
40 | 80 | 0.00 | 1.13 | 2.42 | 3.80 | 4.73 | 5.79 | 6.72 | 7.83 | 9.93 | 1.2 | 0.4520 | at least 2 months | Form A | remains substantially unchanged | at least 2 months | Form A | Form A | 0.269 | CC#CC(=O)N1CCC[C@H]1c1nc(-c2ccc(C(=O)Nc3ccccn3)cc2)c2c(N)nccn12 [Form A, (S)-4-(8-amino-3-(1-(but-2-ynoyl)pyrrolidin-2-yl)imidazo[1,5-a]pyrazin-1-yl)-N-(pyridin-2-yl)benzamide] | Time kept stable (crystalline state doesn't change) ([3]; 40° C./75% RH in closed dish): at least 2 months; Solid form [3, 8]: Form A; Time kept stable (crystalline state doesn't change) ([3]; 40° C./75% RH in open dish): at least 2 months; Solid form [3, 9]: Form A; Tapped density (ρf) [4]: 0.303 g/mL; Flowability [4]: Good (11-15); Compressibility index [4]: 11%
– | – | 0.00 | 1.06 | 2.34 | 4.20 | 5.60 | 7.89 | 8.86 | 10.60 | 12.41 | 1.6 | 0.5778 | at least 2 months | Form CS15 | remains substantially unchanged | at least 2 months | Form CS15 | Form CS15 | – | CC#CC(=O)N1CCC[C@H]1c1nc(-c2ccc(C(=O)Nc3ccccn3)cc2)c2c(N)nccn12 [Form CS15, (S)-4-(8-amino-3-(1-(but-2-ynoyl)pyrrolidin-2-yl)imidazo[1,5-a]pyrazin-1-yl)-N-(pyridin-2-yl)benzamide] | –
30 | 60 | 0.00 | 1.31 | 2.47 | 3.99 | 5.30 | 6.50 | 7.26 | 8.74 | 10.44 | 1.3 | 0.4898 | at least 2 months | Form F | remains substantially unchanged | at least 2 months | Form F | – | 0.185 | CC#CC(=O)N1CCC[C@H]1c1nc(-c2ccc(C(=O)Nc3ccccn3)cc2)c2c(N)nccn12 [Form F, (S)-4-(8-amino-3-(1-(but-2-ynoyl)pyrrolidin-2-yl)imidazo[1,5-a]pyrazin-1-yl)-N-(pyridin-2-yl)benzamide] | Time kept stable (crystalline state doesn't change) ([3]; 40° C./75% RH in closed dish): at least 2 months; Solid form [3, 8]: Form F; Time kept stable (crystalline state doesn't change) ([3]; 40° C./75% RH in open dish): at least 2 months; Solid form [3, 9]: Form F; Tapped density (ρf) [4]: 0.216 g/mL; Flowability [4]: Good (11-15); Compressibility index [4]: 14%
30 | 60 | 0.00 | 1.28 | 2.36 | 3.68 | 4.76 | 5.51 | 6.71 | 7.65 | 9.50 | 1.2 | 0.4396 | at least 2 months | Form G | – | – | – | Form G | 0.443 | CC#CC(=O)N1CCC[C@H]1c1nc(-c2ccc(C(=O)Nc3ccccn3)cc2)c2c(N)nccn12 [Form G, (S)-4-(8-amino-3-(1-(but-2-ynoyl)pyrrolidin-2-yl)imidazo[1,5-a]pyrazin-1-yl)-N-(pyridin-2-yl)benzamide] | Chemical purity on storage ([3]; 25° C./60% RH in closed dish): remains substantially unchanged; Tapped density (ρf) [4]: 0.488 g/mL; Flowability [4]: Good (11-15); Compressibility index [4]: 11%
